In patent publication US4048299A, “Anticaries confectionaries and oral health products” (William Wrigley, Jr. Co., priority 1970, dated 1977):

Experiments:
[1] = system: Lactobacillus casei and Streptococcus sp. FA-1; assay: Acid-production inhibition by broth-tube assay, 0.1 percent of compound; format: cell-based; details: Table XII; 0.1% of compound
Protocol: ^(a) Activity was measured by broth-tube assay to determine percent
(§1) acid-production inhibition obtained by Lactobacillus casei and
Streptococcus sp. FA-1 in the presence of 0.1 percent of compound.
^(a) Activity was measured by broth-tube assay to determine percent o
as §1
Streptococcus sp. FA-1 in the presence of 0.1% of compound. Symbols

[2] = system: Lactobacillus casei ATCC 4646; assay: Acid production inhibition by aldehydes in product vehicles, broth-tube technique; format: cell-based; details: 1 to 5 percent aldehyde
Protocol: (§2) Other in vitro evaluations utilized a broth tube analysis of representative anticaries aldehydes incorporated in the vehicles of this invention against cultures of acid producing microorganisms normally present in the mouth. Standard laboratory procedures were utilized throughout to evaluate the acid production inhibition and growth inhibition over the incubation time of up to 24 hours.
(§3) (a)Measured by broth-tube technique.
(§4) In formulating Tables XIII - XIX representative aldehydes having anticaries activity were selected from those tested as summarized in Tables I - XII and incorporated in seven representative types of products. The products included dextrose and sucrose syrups, obtained commercially in food grades, and compressed candy, hard candy, mouthwash, toothpaste and toothpowder. The five latter products also employed food grade and reagent grade ingredients. These products were formulated by well-known and representative recipes for each type of product. The products were formed in batches of approximately 1 pound or 1 liter and contained all their normal constitutents. Aliquots of each products were blended with one of each of the representative aldehydes selected except in the case of hard candy.
(§5) Aliquots of the aldehyde incorporating sugar syrups, confectioneries, and mouthwash formulations were added directly to assay flasks and mixed or dissolved as required. Aqueous extracts of the aldehyde incorporated in toothpaste and toothpowder were prepared and aliquots of the filtrate were added to the assay flasks.
(§6) The assay flasks contained the necessary components for a normal growth response from the organisms employed, Lactobacillus casei ATCC 4646, originally a human oral isolate, Streptococcus spp. K1-R, human caries isolate, and a mixed oral microbial population obtained fresh from saliva on the morning prior to the initiation of each assay incubation period. The assay flask medium was dissolved in distilled water in which was added an equal volume of filter sterilized human saliva to yield a 50 percent saliva-medium combination. The medium contained all normal ingredients such as yeast extract, proteose peptone number 3 (a proprietary formula of Difco Laboratories, Detroit, Michigan) monopotassium phosphate, Tween 80 (polyoxethylene sorbitan monoleate) and water, except a carbon source. This was supplied by the aliquot of the sucrose syrup, dextrose syrup, sucrose in the compressed candy tablet and sucrose in the hard candy product. In addition, an aliquot of sucrose solution concentrate was added to the assay flask as a carbon source for evaluation of mouthwash, toothpaste, and toothpowder vehicles.
(§7) The lower aldehydes such as glycolaldehyde, crystalline dimer; pyruvaldehyde, aqueous syrup; d,1-glyceraldehyde solution and crystalline dimer; and glutaraldehyde, employed as a 50 percent aqueous solution, are water soluble and were employed directly either as powders or aqueous solutions. The C8 to C12, longer chain aliphatic aldehydes, of which decyl and dodecyl (lauric) were selected as representative, are oil soluble and are prepared and added to the products as emulsions with four parts of Tween 20, polyoxethylene sorbitan monolaurate. The aldehyde concentrations in the products were randomly chosen between 1 to 5 percent by weight. Limits for the concentrations were selected to coincide with the data presented in Tables I - XII in order to verify that the anticaries activity of the aldehydes in the product vehicles tested was equivalent to the activity previously established for the aldehydes alone.

[3] = system: Mixed human oral microorganisms; assay: as above; format: cell-based; details: 1 to 5 percent aldehyde
Protocol: as §2, §3, §4, §5, §6, §7

Streptococcus spp. KI-R [4] = assay: as above; format: cell-based; details: 1 to 5 percent aldehyde
Protocol: as §2, §3, §4, §5, §6, §7

[5] = system: Lactobacillus casei ATCC 4646; assay: Growth inhibition by aldehydes in product vehicles, pour-plate technique; format: cell-based; details: 1 to 5 percent aldehyde
Protocol: as §2
(§8) (b)Measured by pour-plate technique.
as §4, §5, §6, §7

[6] = system: Mixed human oral microorganisms; assay: as above; format: cell-based; details: 1 to 5 percent aldehyde
Protocol: as §2, §8, §4, §5, §6, §7

Streptococcus spp. KI-R [7] = assay: as above; format: cell-based; details: 1 to 5 percent aldehyde
Protocol: as §2, §8, §4, §5, §6, §7

oral microorganisms = assay: Comparison of activity against oral microorganisms in vitro; details: in words, summary of tables
Protocol: Two types of in vitro evaluations of the anticaries agents of this invention were conducted. […] The data was compiled through well-known broth tube analysis techniques.

[8] = in compressed candy tablet, 2 h incubation
[9] = in compressed candy tablet, 5 h incubation
[10] = in compressed candy tablet, 24 h incubation
[11] = in dextrose syrup, 2 h incubation
[12] = in dextrose syrup, 5 h incubation
[13] = in dextrose syrup, 24 h incubation
[14] = in sucrose syrup, 2 h incubation
[15] = in sucrose syrup, 5 h incubation
[16] = in sucrose syrup, 24 h incubation
[17] = in tooth powder (aqueous extract), 2 h incubation
[18] = in tooth powder (aqueous extract), 5 h incubation
[19] = in tooth powder (aqueous extract), 24 h incubation
[20] = in toothpaste (aqueous extract), 2 h incubation
[21] = in toothpaste (aqueous extract), 5 h incubation
[22] = in toothpaste (aqueous extract), 24 h incubation

O=CCCCC=O [Glutaraldehyde]
Activity, Acid-Production Inhibition, % [1]: ++++ (99 to 100) | Acid Production Inhibition [2, 8]: 0 Per Cent | Acid Production Inhibition [2, 9]: 33 Per Cent | Acid Production Inhibition [2, 10]: 81 Per Cent | Acid Production Inhibition [2, 11]: 76 Per Cent | Acid Production Inhibition [2, 12]: 70 Per Cent | Acid Production Inhibition [2, 13]: 29 Per Cent | Acid Production Inhibition [2, 14]: 100 Per cent | Acid Production Inhibition [2, 15]: 75 Per cent | Acid Production Inhibition [2, 16]: 50 Per cent | Acid Production Inhibition [2, 17]: 0 Per cent | Acid Production Inhibition [2, 18]: 33 Per cent | Acid Production Inhibition [2, 19]: 21 Per cent | Acid Production Inhibition [2, 20]: 80 Per cent | Acid Production Inhibition [2, 21]: 80 Per cent | Acid Production Inhibition [2, 22]: 50 Per cent | Acid Production Inhibition [3, 8]: 100 Per Cent | Acid Production Inhibition [3, 9]: 100 Per Cent | Acid Production Inhibition [3, 10]: 0 Per Cent | Acid Production Inhibition [3, 11]: 23 Per Cent | Acid Production Inhibition [3, 12]: 81 Per Cent | Acid Production Inhibition [3, 13]: 16 Per Cent | Acid Production Inhibition ([3]; in mouthwash, 2 h incubation): 0 Per cent | Acid Production Inhibition ([3]; in mouthwash, 5 h incubation): 100 Per cent | Acid Production Inhibition ([3]; in mouthwash, 24 h incubation): 91 Per cent | Acid Production Inhibition [3, 14]: 100 Per cent | Acid Production Inhibition [3, 15]: 59 Per cent | Acid Production Inhibition [3, 16]: 0 Per cent | Acid Production Inhibition [3, 17]: 67 Per cent | Acid Production Inhibition [3, 18]: 95 Per cent | Acid Production Inhibition [3, 19]: 45 Per cent | Acid Production Inhibition [3, 20]: 0 Per cent | Acid Production Inhibition [3, 21]: 0 Per cent | Acid Production Inhibition [3, 22]: 0 Per cent | Acid Production Inhibition (Streptococcus spp. KI-R [4]; [8]): 100 Per Cent | Acid Production Inhibition (Streptococcus spp. KI-R [4]; [9]): 100 Per Cent | Acid Production Inhibition (Streptococcus spp. KI-R [4]; [10]): 100 Per Cent | Acid Production Inhibition (Streptococcus spp. KI-R [4]; [11]): 70 Per Cent | Acid Production Inhibition (Streptococcus spp. KI-R [4]; [12]): 93 Per Cent | Acid Production Inhibition (Streptococcus spp. KI-R [4]; [13]): 0 Per Cent | Acid Production Inhibition (Streptococcus spp. KI-R [4]; in mouthwash, 2 h incubation): 0 Per cent | Acid Production Inhibition (Streptococcus spp. KI-R [4]; in mouthwash, 5 h incubation): 0 Per cent | Acid Production Inhibition (Streptococcus spp. KI-R [4]; in mouthwash, 24 h incubation): 99 Per cent | Acid Production Inhibition (Streptococcus spp. KI-R [4]; [14]): 100 Per cent | Acid Production Inhibition (Streptococcus spp. KI-R [4]; [15]): 83 Per cent | Acid Production Inhibition (Streptococcus spp. KI-R [4]; [16]): 0 Per cent | Acid Production Inhibition (Streptococcus spp. KI-R [4]; [17]): 0 Per cent | Acid Production Inhibition (Streptococcus spp. KI-R [4]; [18]): 0 Per cent | Acid Production Inhibition (Streptococcus spp. KI-R [4]; [19]): 0 Per cent | Acid Production Inhibition (Streptococcus spp. KI-R [4]; [20]): 100 Per cent | Acid Production Inhibition (Streptococcus spp. KI-R [4]; [21]): 100 Per cent | Acid Production Inhibition (Streptococcus spp. KI-R [4]; [22]): 84 Per cent | Growth Inhibition [5, 8]: N.S. | Growth Inhibition [5, 9]: N.S. | Growth Inhibition [5, 10]: 99.5 Per Cent | Growth Inhibition [5, 11]: N.S. | Growth Inhibition [5, 12]: N.S. | Growth Inhibition [5, 13]: 90 Per Cent | Growth Inhibition [5, 14]: N.S. | Growth Inhibition [5, 15]: N.S. | Growth Inhibition [5, 16]: N.S. | Growth Inhibition [5, 17]: N.S. | Growth Inhibition [5, 18]: N.S. | Growth Inhibition [5, 19]: N.S. | Growth Inhibition [5, 20]: N.S. | Growth Inhibition [5, 21]: N.S. | Growth Inhibition [5, 22]: 0 Per cent | Growth Inhibition [6, 8]: 97.3 Per Cent | Growth Inhibition [6, 9]: 99.8 Per Cent | Growth Inhibition [6, 10]: N.S. | Growth Inhibition [6, 11]: 92.5 Per Cent | Growth Inhibition [6, 12]: 90 Per Cent | Growth Inhibition [6, 13]: N.S. | Growth Inhibition ([6]; in mouthwash, 2 h incubation): 100 Per cent | Growth Inhibition ([6]; in mouthwash, 5 h incubation): 100 Per cent | Growth Inhibition ([6]; in mouthwash, 24 h incubation): 99.9 Per cent | Growth Inhibition [6, 14]: 90 Per cent | Growth Inhibition [6, 15]: 93 Per cent | Growth Inhibition [6, 16]: N.S. | Growth Inhibition [6, 17]: N.S. | Growth Inhibition [6, 18]: 96.6 Per cent | Growth Inhibition [6, 19]: N.S. | Growth Inhibition [6, 20]: 0 Per cent | Growth Inhibition [6, 21]: N.S. | Growth Inhibition [6, 22]: N.S. | Growth Inhibition (Streptococcus spp. KI-R [7]; [8]): N.S. | Growth Inhibition (Streptococcus spp. KI-R [7]; [9]): N.S. | Growth Inhibition (Streptococcus spp. KI-R [7]; [10]): N.S. | Growth Inhibition (Streptococcus spp. KI-R [7]; [11]): N.S. | Growth Inhibition (Streptococcus spp. KI-R [7]; [12]): 99.96 Per Cent | Growth Inhibition (Streptococcus spp. KI-R [7]; [13]): 0 Per Cent | Growth Inhibition (Streptococcus spp. KI-R [7]; in mouthwash, 2 h incubation): 100 Per cent | Growth Inhibition (Streptococcus spp. KI-R [7]; in mouthwash, 5 h incubation): 99.999 Per cent | Growth Inhibition (Streptococcus spp. KI-R [7]; in mouthwash, 24 h incubation): 100 Per cent | Growth Inhibition (Streptococcus spp. KI-R [7]; [14]): N.S. | Growth Inhibition (Streptococcus spp. KI-R [7]; [15]): > 99 Per cent | Growth Inhibition (Streptococcus spp. KI-R [7]; [16]): 90 Per cent | Growth Inhibition (Streptococcus spp. KI-R [7]; [17]): N.S. | Growth Inhibition (Streptococcus spp. KI-R [7]; [18]): N.S. | Growth Inhibition (Streptococcus spp. KI-R [7]; [19]): N.S. | Growth Inhibition (Streptococcus spp. KI-R [7]; [20]): N.S. | Growth Inhibition (Streptococcus spp. KI-R [7]; [21]): N.S. | Growth Inhibition (Streptococcus spp. KI-R [7]; [22]): N.S. | Solubility: water soluble

CC(O)C=O (stereo not drawn) [α-Hydroxypropionaldehyde]
Anticaries activity in vitro (oral microorganisms): excellent anticaries activity
